Results taken from patent US10392391B2 (Vertex Pharmaceuticals Incorporated, priority 2012, dated 2019).

molecular target: ATR kinase (full-length ATR) (Homo sapiens (Human), UniProt Q13535); assay: ATR inhibition assay (radioactive-phosphate incorporation); type: biochemical; details: not given
Outline: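 Radiometric 33P incorporation by 5 nM full-length ATR into 800 μM target peptide with 10 μM [γ-33P]ATP, in 50 mM Tris/HCl pH 7.5, 10 mM MgCl2, 1 mM DTT, 7% DMSO, 25° C. Compound pre-incubated 10 minutes; reaction stopped after 24 hours, captured on phosphocellulose. Ki(app) from non-linear regression of initial rates.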

Sequence of ATR kinase (full-length ATR) (Q13535 whole entry): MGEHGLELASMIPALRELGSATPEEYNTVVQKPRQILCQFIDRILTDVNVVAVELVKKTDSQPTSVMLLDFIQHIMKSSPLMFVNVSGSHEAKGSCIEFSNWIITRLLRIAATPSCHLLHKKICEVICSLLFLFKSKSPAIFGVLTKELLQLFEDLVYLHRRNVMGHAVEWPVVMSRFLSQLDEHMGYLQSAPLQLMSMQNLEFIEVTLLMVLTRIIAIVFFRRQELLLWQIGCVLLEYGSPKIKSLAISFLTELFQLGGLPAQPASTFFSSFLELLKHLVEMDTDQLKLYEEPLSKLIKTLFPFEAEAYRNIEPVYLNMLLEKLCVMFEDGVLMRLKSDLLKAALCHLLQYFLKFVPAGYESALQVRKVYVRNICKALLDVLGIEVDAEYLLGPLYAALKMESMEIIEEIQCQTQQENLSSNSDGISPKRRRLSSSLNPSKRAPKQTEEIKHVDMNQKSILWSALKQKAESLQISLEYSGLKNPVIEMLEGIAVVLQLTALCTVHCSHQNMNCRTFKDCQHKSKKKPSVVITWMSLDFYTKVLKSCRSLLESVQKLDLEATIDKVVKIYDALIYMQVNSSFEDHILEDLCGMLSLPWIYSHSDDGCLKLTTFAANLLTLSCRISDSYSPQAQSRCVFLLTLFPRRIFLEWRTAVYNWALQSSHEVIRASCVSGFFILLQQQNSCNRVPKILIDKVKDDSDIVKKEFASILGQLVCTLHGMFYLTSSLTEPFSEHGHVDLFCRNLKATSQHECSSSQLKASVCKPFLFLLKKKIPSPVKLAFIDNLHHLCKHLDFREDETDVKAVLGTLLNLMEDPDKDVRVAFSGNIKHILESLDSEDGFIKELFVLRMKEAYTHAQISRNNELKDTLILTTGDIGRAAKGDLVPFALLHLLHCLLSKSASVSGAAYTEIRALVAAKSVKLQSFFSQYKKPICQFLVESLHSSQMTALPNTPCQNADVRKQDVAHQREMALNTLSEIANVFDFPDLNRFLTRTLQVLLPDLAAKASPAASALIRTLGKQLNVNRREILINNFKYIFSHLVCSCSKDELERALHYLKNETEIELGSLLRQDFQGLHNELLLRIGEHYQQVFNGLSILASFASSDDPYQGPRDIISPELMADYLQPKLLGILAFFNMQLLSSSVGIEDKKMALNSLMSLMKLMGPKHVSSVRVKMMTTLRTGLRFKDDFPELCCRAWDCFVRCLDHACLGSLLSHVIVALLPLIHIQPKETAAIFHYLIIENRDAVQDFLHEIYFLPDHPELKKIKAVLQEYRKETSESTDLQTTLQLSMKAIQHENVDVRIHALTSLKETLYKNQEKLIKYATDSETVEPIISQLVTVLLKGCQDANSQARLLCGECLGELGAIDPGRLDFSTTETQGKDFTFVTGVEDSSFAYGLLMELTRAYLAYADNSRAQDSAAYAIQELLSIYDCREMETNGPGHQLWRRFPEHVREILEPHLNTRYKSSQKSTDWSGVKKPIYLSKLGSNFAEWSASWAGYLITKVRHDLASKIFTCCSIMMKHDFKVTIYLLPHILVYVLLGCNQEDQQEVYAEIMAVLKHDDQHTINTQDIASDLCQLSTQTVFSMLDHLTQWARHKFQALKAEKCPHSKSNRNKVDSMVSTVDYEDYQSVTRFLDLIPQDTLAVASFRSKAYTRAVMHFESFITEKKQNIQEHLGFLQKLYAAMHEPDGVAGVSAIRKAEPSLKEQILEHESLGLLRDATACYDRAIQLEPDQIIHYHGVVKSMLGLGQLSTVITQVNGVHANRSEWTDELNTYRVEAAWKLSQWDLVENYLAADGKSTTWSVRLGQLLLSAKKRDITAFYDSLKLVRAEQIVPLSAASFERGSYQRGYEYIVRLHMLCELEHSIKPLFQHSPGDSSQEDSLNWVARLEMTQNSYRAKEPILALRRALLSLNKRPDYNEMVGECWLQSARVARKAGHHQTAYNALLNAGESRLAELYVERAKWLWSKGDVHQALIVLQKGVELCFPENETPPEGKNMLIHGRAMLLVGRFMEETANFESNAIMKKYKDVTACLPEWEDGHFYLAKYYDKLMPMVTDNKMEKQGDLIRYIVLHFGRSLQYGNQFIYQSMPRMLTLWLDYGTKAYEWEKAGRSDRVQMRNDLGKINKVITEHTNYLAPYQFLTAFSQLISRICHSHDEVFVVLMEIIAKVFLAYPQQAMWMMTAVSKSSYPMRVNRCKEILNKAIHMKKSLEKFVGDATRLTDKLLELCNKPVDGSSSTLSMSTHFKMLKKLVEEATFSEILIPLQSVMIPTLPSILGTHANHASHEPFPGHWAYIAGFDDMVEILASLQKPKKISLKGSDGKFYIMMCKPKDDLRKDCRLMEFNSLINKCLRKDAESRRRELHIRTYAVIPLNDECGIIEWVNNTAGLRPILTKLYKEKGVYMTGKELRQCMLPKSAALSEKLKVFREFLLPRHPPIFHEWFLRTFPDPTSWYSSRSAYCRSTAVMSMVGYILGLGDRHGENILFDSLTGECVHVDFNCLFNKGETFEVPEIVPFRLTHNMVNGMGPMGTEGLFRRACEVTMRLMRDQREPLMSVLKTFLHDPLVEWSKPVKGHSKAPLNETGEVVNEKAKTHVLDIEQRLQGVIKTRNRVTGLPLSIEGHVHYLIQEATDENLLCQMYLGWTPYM

Row | Structure (SMILES) | Ki [nM]
1 | Cc1ccncc1NC(=O)c1c(N)nn2cc(Cl)cnc12 [I-C-2, 2-amino-6-chloro-N-(4-methylpyridin-3-yl)pyrazolo[1,5-a]pyrimidine-3-carboxamide] | 1000 to 5000
2 | Nc1nn2cc(F)cnc2c1C(=O)Nc1cncc(F)c1C1CCN(C2COC2)CC1 [I-C-13, 2-amino-6-fluoro-N-(5-fluoro-4-(1-(oxetan-3-yl)piperidin-4-yl)pyridin-3-yl)pyrazolo[1,5-a]pyrimidine-3-carboxamide] | 1000 to 5000

same assay, conditions: Ki(app), 5 nM full-length ATR, 10 μM ATP, 25° C.

Row | Structure (SMILES) | Ki [nM]
3 | Nc1nn2cc(Cl)cnc2c1C(=O)Nc1cnccc1OC1CCCNC1 (centres unmarked) [I-O-75, 2-amino-6-chloro-N-(4-(piperidin-3-yloxy)pyridin-3-yl)pyrazolo[1,5-a]pyrimidine-3-carboxamide] | 10 to 1000
4 | COc1ccncc1NC(=O)c1c(N)nn2cc(F)cnc12 [I-O-4, 2-amino-6-fluoro-N-(4-methoxypyridin-3-yl)pyrazolo[1,5-a]pyrimidine-3-carboxamide] | 10 to 1000
5 | CN1CCC(C(=O)N2CCN(c3c(F)cncc3NC(=O)c3c(N)nn4cc(F)cnc34)CC2)C1 (centres unmarked) [I-N-156, 2-amino-6-fluoro-N-(5-fluoro-4-(4-(1-methylpyrrolidine-3-carbonyl)piperazin-1-yl)pyridin-3-yl)pyrazolo[1,5-a]pyrimidine-3-carboxamide] | 10 to 1000
6 | Cc1nc(C)n(-c2ccncc2NC(=O)c2c(N)nn3cc(F)cnc23)n1 [I-N-218, 2-amino-N-(4-(3,5-dimethyl-1H-1,2,4-triazol-1-yl)pyridin-3-yl)-6-fluoropyrazolo[1,5-a]pyrimidine-3-carboxamide] | 10 to 1000
7 | Nc1nn2cc(Cl)cnc2c1C(=O)Nc1cnccc1O[C@H]1CCCNC1 [I-O-74, (S)-2-amino-6-chloro-N-(4-(piperidin-3-yloxy)pyridin-3-yl)pyrazolo[1,5-a]pyrimidine-3-carboxamide] | 10 to 1000
8 | CN(C)CCOc1ccncc1NC(=O)c1c(N)nn2cc(CC#N)cnc12 [I-O-24, 2-amino-6-(cyanomethyl)-N-(4-(2-(dimethylamino)ethoxy)pyridin-3-yl)pyrazolo[1,5-a]pyrimidine-3-carboxamide] | < 10
9 | Nc1nn2cc(F)cnc2c1C(=O)Nc1cncc(F)c1N1CCN2CCOC[C@@H]2C1 [I-N-137, (S)-2-amino-6-fluoro-N-(5-fluoro-4-(hexahydropyrazino[2,1-c][1,4]oxazin-8(1H)-yl)pyridin-3-yl)pyrazolo[1,5-a]pyrimidine-3-carboxamide] | 10 to 1000
10 | Nc1nn2cc(F)cnc2c1C(=O)Nc1cncc(F)c1N1CCN(C(=O)C2CC3CCCCN3C2)CC1 (centres unmarked) [I-N-203, 2-amino-6-fluoro-N-(5-fluoro-4-(4-(octahydroindolizine-2-carbonyl)piperazin-1-yl)pyridin-3-yl)pyrazolo[1,5-a]pyrimidine-3-carboxamide] | 10 to 1000
11 | CNC1CN(C(=O)C2CCN(c3c(F)cncc3NC(=O)c3c(N)nn4cc(F)cnc34)CC2)C1 [I-G-34, 2-amino-6-fluoro-N-(5-fluoro-4-(4-(3-(methylamino)azetidine-1-carbonyl)piperidin-1-yl)pyridin-3-yl)pyrazolo[1,5-a]pyrimidine-3-carboxamide] | 10 to 1000
12 | CCN1CCCC1C(=O)N1CCN(c2c(F)cncc2NC(=O)c2c(N)nn3cc(F)cnc23)CC1 (centres unmarked) [I-N-185, 2-amino-N-(4-(4-(1-ethylpyrrolidine-2-carbonyl)piperazin-1-yl)-5-fluoropyridin-3-yl)-6-fluoropyrazolo[1,5-a]pyrimidine-3-carboxamide] | 10 to 1000
13 | Nc1nn2cc(Cl)cnc2c1C(=O)Nc1cnccc1N1CCC(N2CCC23COC3)CC1 [I-N-109, N-(4-(4-(6-oxa-1-azaspiro[3.3]heptan-1-yl)piperidin-1-yl)pyridin-3-yl)-2-amino-6-chloropyrazolo[1,5-a]pyrimidine-3-carboxamide] | 10 to 1000
14 | Nc1nn2cc(F)cnc2c1C(=O)Nc1cnccc1-c1ccc(C(=O)N2CCN(C3COC3)CC2)nc1 [I-C-52, 2-amino-6-fluoro-N-(6-(4-(oxetan-3-yl)piperazine-1-carbonyl)-[3,4′-bipyridin]-3′-yl)pyrazolo[1,5-a]pyrimidine-3-carboxamide] | 10 to 1000
15 | Nc1nn2cc(F)cnc2c1C(=O)Nc1cncc(F)c1N1CCC(S(=O)(=O)N2CCC2)CC1 [I-N-169, 2-amino-N-(4-(4-(azetidin-1-ylsulfonyl)piperidin-1-yl)-5-fluoropyridin-3-yl)-6-fluoropyrazolo[1,5-a]pyrimidine-3-carboxamide] | 10 to 1000
16 | Cc1ncn(C)c1-c1ccncc1NC(=O)c1c(N)nn2cc(F)cnc12 [I-C-78, 2-amino-N-(4-(1,4-dimethyl-1H-imidazol-5-yl)pyridin-3-yl)-6-fluoropyrazolo[1,5-a]pyrimidine-3-carboxamide] | 10 to 1000
17 | Nc1nn2cc(F)cnc2c1C(=O)Nc1cncc(Cl)c1N1CCC(O)C1 (centres unmarked) [I-N-284, 2-amino-N-(5-chloro-4-(3-hydroxypyrrolidin-1-yl)pyridin-3-yl)-6-fluoropyrazolo[1,5-a]pyrimidine-3-carboxamide] | 10 to 1000
18 | Nc1nn2cc(F)cnc2c1C(=O)Nc1cnccc1N1CCN(C(=O)C2COC2)CC1 [I-N-249] | 10 to 1000
19 | N#CCc1cnc2c(C(=O)Nc3cnccc3OC3CN4CCC3CC4)c(N)nn2c1 (racemic) [I-O-22, (R,S)-2-amino-6-(cyanomethyl)-N-(4-(quinuclidin-3-yloxy)pyridin-3-yl)pyrazolo[1,5-a]pyrimidine-3-carboxamide] | 10 to 1000
20 | Nc1nn2cc(F)cnc2c1C(=O)Nc1cnccc1N1CCC(C(=O)N2CC3(COC3)C2)CC1 [I-G-88, N-(4-(4-(2-oxa-6-azaspiro[3.3]heptane-6-carbonyl)piperidin-1-yl)pyridin-3-yl)-2-amino-6-fluoropyrazolo[1,5-a]pyrimidine-3-carboxamide] | 10 to 1000
21 | N#CCc1cnc2c(C(=O)Nc3cnccc3-c3ccccc3)c(N)nn2c1 [I-C-6, 2-amino-6-(cyanomethyl)-N-(4-phenylpyridin-3-yl)pyrazolo[1,5-a]pyrimidine-3-carboxamide] | 10 to 1000
22 | CN1CCN(CC2CCN(c3c(F)cncc3NC(=O)c3c(N)nn4cc(F)cnc34)CC2)CC1 [I-N-150, 2-amino-6-fluoro-N-(5-fluoro-4-(4-((4-methylpiperazin-1-yl)methyl)piperidin-1-yl)pyridin-3-yl)pyrazolo[1,5-a]pyrimidine-3-carboxamide] | 10 to 1000
23 | CCn1cncc1-c1ccncc1NC(=O)c1c(N)nn2cc(F)cnc12 [I-C-80, 2-amino-N-(4-(1-ethyl-1H-imidazol-5-yl)pyridin-3-yl)-6-fluoropyrazolo[1,5-a]pyrimidine-3-carboxamide] | 10 to 1000
24 | Nc1nn2cc(F)cnc2c1C(=O)Nc1cnccc1-c1ccncc1 [I-C-24, N-([4,4′-bipyridin]-3-yl)-2-amino-6-fluoropyrazolo[1,5-a]pyrimidine-3-carboxamide] | 10 to 1000
25 | Nc1nn2cc(Cl)cnc2c1C(=O)Nc1cnccc1O[C@H]1CCNC1 [I-O-76, (S)-2-amino-6-chloro-N-(4-(pyrrolidin-3-yloxy)pyridin-3-yl)pyrazolo[1,5-a]pyrimidine-3-carboxamide] | 10 to 1000
26 | Cc1ccn(-c2ccncc2NC(=O)c2c(N)nn3cc(F)cnc23)n1 [I-N-225, 2-amino-6-fluoro-N-(4-(3-methyl-1H-pyrazol-1-yl)pyridin-3-yl)pyrazolo[1,5-a]pyrimidine-3-carboxamide] | 10 to 1000
